Data: patent US10508088B2, “Methods using HDAC11 inhibitors” (FORMA Therapeutics, Inc., priority 2016, dated 2019)
pIC50: −log10 of the molar value.

Assays:
HDAC1 = HDAC1 (Homo sapiens (Human), UniProt Q13547); test: HDAC inhibition assay, electrophoretic mobility shift (Nanosyn); settings: read-out: HDAC Biochemical IC50 HDAC1
Description: (§1) This example describes in vitro inhibition properties of exemplary HDAC11 inhibitors for various HDACs. HDAC inhibition assays were performed using an electrophoretic mobility shift assay at Nanosyn, Inc. (Santa Clara, Calif.). Full length human recombinant HDAC proteins were expressed in the baculoviral system and purified by affinity chromatography. A human recombinant HDAC3 was co-expressed with nuclear receptor corepressor (Ncor2). The following peptide substrates were used: FAM-RHKK(Ac)-NH2 for HDAC3, HDAC6 and HDAC8; FITC-H3K27(Ac)-NH2 for HDAC1, HDAC2 and HDAC10; FAM-RHKK(tri-fluor-Ac)-NH2 for HDAC4, HDAC5, HDAC7, HDAC9 and HDAC11. Reactions consisting of compound, enzyme, and substrate were performed in reaction buffer (comprised of 100 mM HEPES, pH7.5, 25 mM KCl, 0.1% bovine serum albumin, 0.01% Triton X-100) at 25° C. and quenched by the addition of termination buffer (100 mM HEPES, pH7.5, 0.01% Triton X-100, 0.05% SDS). The fluorescence intensity of the electrophoretically separated de-acetylated product and substrate peptide were measured and analyzed using the LabChip® 3000 microfluidic electrophoresis instrument (Perkin Elmer/Caliper Life Sciences). The IC50 values of inhibitors were determined by fitting the %-inhibition curves with 4 parameter dose-response model using XLfit 4 software (IDBS).

HDAC10 = HDAC10 (Homo sapiens (Human), UniProt Q969S8); test: as above; settings: read-out: HDAC Biochemical IC50 HDAC10
HDAC10, sequence (Q969S8 whole entry): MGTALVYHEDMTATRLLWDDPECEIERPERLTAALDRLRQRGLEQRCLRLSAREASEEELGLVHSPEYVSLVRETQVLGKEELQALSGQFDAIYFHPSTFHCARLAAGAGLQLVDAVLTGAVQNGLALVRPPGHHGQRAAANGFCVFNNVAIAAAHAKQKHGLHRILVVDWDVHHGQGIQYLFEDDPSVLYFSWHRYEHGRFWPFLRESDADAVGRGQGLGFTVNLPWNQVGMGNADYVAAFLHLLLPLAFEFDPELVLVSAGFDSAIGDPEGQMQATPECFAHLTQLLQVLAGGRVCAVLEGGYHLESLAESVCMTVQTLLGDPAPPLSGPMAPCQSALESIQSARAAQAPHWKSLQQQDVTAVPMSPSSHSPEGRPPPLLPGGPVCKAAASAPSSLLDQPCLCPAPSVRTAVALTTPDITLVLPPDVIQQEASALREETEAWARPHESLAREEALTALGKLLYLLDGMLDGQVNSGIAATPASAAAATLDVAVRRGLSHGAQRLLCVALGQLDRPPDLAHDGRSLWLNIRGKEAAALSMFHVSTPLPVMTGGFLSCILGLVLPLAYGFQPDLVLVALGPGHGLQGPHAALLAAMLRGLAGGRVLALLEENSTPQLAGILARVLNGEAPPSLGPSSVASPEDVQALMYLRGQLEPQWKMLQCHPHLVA
Description: as §1

HDAC2 = HDAC2 (Homo sapiens (Human), UniProt Q92769); test: as above; settings: read-out: HDAC Biochemical IC50 HDAC2
HDAC2, sequence (Q92769 whole entry): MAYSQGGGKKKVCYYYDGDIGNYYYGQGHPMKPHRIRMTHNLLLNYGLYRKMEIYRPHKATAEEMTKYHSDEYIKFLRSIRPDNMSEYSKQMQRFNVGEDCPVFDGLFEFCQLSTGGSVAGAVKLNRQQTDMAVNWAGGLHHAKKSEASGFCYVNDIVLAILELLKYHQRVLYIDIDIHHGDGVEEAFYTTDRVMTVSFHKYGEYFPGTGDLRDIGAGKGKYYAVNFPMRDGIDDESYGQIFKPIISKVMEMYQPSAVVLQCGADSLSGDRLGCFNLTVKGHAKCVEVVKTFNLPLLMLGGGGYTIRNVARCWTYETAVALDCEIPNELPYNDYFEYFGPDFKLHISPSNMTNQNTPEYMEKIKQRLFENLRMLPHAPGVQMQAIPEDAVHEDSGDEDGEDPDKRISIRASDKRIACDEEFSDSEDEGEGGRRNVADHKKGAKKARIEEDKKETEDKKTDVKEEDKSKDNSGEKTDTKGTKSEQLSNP
Description: as §1

HDAC4 = HDAC4 (Homo sapiens (Human), UniProt P56524); test: as above; settings: read-out: HDAC Biochemical IC50 HDAC4
HDAC4, sequence (P56524 whole entry): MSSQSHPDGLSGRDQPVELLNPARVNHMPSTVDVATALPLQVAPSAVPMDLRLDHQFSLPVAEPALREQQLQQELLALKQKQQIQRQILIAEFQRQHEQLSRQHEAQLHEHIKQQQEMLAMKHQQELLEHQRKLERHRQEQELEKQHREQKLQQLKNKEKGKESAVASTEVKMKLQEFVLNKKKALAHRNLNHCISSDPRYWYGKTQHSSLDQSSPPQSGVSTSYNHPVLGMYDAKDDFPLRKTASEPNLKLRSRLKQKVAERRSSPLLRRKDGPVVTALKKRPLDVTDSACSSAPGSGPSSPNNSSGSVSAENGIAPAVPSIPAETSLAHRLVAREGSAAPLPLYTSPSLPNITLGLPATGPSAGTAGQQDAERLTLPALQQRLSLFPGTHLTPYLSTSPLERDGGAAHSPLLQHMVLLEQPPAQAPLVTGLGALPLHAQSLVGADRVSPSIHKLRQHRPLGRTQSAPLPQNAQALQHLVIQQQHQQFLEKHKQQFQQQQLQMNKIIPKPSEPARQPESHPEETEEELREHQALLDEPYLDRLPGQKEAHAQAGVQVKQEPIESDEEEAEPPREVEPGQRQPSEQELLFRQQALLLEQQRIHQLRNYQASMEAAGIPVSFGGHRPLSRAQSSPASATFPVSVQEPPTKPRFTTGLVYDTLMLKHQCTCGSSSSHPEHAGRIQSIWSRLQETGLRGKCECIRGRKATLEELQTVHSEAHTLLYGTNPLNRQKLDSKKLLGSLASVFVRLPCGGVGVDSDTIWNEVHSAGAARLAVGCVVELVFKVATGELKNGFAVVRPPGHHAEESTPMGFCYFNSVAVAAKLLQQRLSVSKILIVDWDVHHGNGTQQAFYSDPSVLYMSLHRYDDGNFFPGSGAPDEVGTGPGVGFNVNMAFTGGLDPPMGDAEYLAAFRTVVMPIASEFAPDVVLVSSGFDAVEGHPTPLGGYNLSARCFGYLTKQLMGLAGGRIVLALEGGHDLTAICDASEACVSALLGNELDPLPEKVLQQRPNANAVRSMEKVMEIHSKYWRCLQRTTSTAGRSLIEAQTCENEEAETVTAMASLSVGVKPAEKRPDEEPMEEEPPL
Description: as §1

HDAC7 = HDAC7 (Homo sapiens (Human), UniProt Q8WUI4); test: as above; settings: read-out: HDAC Biochemical IC50 HDAC7
HDAC7, sequence (Q8WUI4 whole entry): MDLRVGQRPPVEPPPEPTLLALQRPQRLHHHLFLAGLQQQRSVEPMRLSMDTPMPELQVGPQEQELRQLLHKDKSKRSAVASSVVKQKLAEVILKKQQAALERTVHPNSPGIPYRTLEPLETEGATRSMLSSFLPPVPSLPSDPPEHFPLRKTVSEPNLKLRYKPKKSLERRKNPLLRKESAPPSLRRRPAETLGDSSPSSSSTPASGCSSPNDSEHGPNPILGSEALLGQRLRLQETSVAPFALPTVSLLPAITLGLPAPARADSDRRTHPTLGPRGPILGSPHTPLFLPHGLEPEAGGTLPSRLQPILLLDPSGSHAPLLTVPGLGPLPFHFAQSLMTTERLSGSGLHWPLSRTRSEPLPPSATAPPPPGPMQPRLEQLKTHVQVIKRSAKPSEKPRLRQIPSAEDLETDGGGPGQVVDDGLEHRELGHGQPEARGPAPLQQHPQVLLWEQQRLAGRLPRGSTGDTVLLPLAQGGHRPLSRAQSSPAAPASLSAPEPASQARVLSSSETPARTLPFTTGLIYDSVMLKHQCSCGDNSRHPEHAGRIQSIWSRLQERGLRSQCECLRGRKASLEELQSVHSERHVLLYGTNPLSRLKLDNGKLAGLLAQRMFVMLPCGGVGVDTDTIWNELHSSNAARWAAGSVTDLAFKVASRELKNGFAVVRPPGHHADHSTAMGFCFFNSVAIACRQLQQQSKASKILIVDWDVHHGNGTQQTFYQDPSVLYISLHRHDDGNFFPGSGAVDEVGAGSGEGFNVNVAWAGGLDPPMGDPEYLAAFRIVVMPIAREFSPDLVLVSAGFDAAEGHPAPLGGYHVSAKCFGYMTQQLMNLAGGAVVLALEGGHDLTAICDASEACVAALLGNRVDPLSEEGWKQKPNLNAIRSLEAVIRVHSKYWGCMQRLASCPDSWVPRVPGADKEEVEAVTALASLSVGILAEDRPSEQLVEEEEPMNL
Description: as §1

HDAC8 = HDAC8 (Homo sapiens (Human), UniProt Q9BY41); test: as above; settings: read-out: HDAC Biochemical IC50 HDAC8
HDAC8, sequence (Q9BY41 whole entry): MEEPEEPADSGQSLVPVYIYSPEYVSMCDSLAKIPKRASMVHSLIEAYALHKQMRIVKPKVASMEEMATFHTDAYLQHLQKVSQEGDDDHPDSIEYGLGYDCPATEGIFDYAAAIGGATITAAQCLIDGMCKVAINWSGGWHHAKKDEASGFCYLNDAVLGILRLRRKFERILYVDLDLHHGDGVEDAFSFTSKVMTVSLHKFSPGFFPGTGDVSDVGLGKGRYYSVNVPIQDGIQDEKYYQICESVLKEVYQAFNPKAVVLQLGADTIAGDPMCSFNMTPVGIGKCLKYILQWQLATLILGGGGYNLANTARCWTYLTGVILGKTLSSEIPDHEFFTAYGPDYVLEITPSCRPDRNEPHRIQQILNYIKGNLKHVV
Description: as §1

HDAC11 = HDAC11 (Homo sapiens (Human), UniProt Q96DB2); test: as above; type: biochemical; settings: for selectivity over HDACs 1-10: HDAC11 versus HDACs 1-10; for pIC50: read-out: HDAC Biochemical IC50 HDAC11
HDAC11, sequence (Q96DB2 whole entry): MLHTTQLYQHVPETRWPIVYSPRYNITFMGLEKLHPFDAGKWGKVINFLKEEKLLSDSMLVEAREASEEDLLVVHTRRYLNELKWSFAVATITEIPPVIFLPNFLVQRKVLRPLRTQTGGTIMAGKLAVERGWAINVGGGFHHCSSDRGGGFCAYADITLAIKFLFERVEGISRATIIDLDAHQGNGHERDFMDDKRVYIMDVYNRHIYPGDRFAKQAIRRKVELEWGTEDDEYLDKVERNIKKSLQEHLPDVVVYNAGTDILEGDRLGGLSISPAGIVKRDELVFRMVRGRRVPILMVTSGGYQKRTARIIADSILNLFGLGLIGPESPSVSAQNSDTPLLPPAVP
Description: as §1

[1] = system: A549 side population stem-like cells (KRAS mutation); test: Sphere formation assay with stem-like side population NSCLC cells; type: cell-based; settings: A549 SP cells, 0.5-5.0 μM, Day 10
Description: (§2) In order to investigate the role of HDAC11 in the self-renewal of stem-like cancer cells, sphere formation assays were conducted with NSCLC side population (SP) stem-like cells. A549 and NCI-H1650 cells were obtained from the ATCC. Asynchronously growing A549 or NCI-H1650 cells were washed once with phosphate buffered saline (PBS) and harvested using Accutase solution (Sigma Aldrich) and resuspended in DMEM-F12K medium (Gibo, Life Technologies) with 2% fetal bovine serum (FBS) at 1×10^6 cells/ml density. The cells were incubated with 4 μg/ml of Hoechst 33342 dye (Life Technologies) for 90 min at 37° C. in the presence or absence of 1 μM Fumitremorgin C (Sigma-Aldrich) which was used as a control sample to set the gate during sorting. The Hoechst stained cells were sorted using the BD FACSAria cell sorter. The sorted SP cells were plated in 96-well ultra-low adherent plate (Corning Inc) at the cell density of 1000 cells/100 μl/well in stem cell selective medium (DMEM:F12K supplemented with N2 supplement, 10 ng/mL epidermal growth factor (EGF) and 10 ng/ml basic fibroblast growth factor (bFGF) (Sigma-Aldrich) at 37° C. for 7-10 days. The spheres were observed and acquired using EVOS FL microscope system (Life Technologies Inc., USA). The numbers of spheres greater than or equal to 50 μm were counted. To study the effect of the HDAC11 inhibitors, the appropriate concentrations of the compounds were added to the wells on Day 0 and Day 5 and the image acquisition and analysis of the spheres were performed on Day 10. The sphere formation assays were performed twice with triplicates of each treatment in every assay.

[2] = system: H1650 side population stem-like cells (EGFR mutation); test: as above; type: cell-based; settings: H1650 SP cells, 0.5-5.0 μM, Day 10
Description: as §2

[3] = system: Sox2, Gli1, Yap1 mRNA in A549 cells; test: QRT-PCR assay for stem cell transcription factors; type: cell-based; settings: A549, 72 hours
Description: (§3) Given the effects of HDAC11 inhibition on stem-like side population cells, the effects on the expression of stem cell transcription factors was determined using QRT-PCR. A549 or H1650 cells were plated in 60 mm cell culture dishes (120,000 cells). The next day, HDAC11 inhibitors were added at various concentrations and incubated for 72 hours. For the siRNA experiments, A549 cells were plated in 60 mm cell culture dishes (120,000 cells per dish). The siRNAs (Santa Cruz Biotechnologies sc-106896 or ThermoFisher Scientific Cat#4392420) were transfected at a concentration of 100 and 150 pmoles into cells using Oligofectamine reagent (Invitrogen) as per manufacturer's protocol. A non-targeting siRNA (Ambion AM4635) was used as a control for all the transfection experiments. The cells were harvested after 72 hours post transfection. At the end of the treatments, cells were scraped, lysed and total RNA was isolated by RNeasy miniprep kit from Qiagen following the manufacturer's protocol (RNeasy mini kit Cat No. 74104). 1 μg of RNA was converted into cDNA using iScript cDNA synthesis kit (BioRad) in a 20 μl total reaction volume. Levels of mRNA were further analyzed using quantitative real time-PCR (qRT-PCR) that was performed in CFX96 Real time system using BioRad iQ SYBR Green supermix. The reaction was set with 5 μl of SYBR Green, 1 μl of 1 μM Forward primer, 1 μl of 1 μM Reverse primer, 0.5 μl of cDNA and 4.5 μl of water in a total 12 μl reaction. Data was normalized using GAPDH as an internal control and fold change was calculated by 2^−Delta-DeltaCt method. First the Delta-Ct was calculated (Delta-Ct=Ct Gene−Ct GAPDH). Next Delta-Delta-Ct was calculated (Delta-Delta-Ct=Delta-Ct treatment−Delta-Ct control). Finally fold change was calculated by 2^−Delta-DeltaCt.

[4] = system: Sox2, Gli1, Yap1 mRNA in H1650 cells; test: QRT-PCR assay for stem cell transcription factors; type: cell-based; settings: H1650, 72 hours
Description: as §3

HDAC1, sequence (Q13547 whole entry): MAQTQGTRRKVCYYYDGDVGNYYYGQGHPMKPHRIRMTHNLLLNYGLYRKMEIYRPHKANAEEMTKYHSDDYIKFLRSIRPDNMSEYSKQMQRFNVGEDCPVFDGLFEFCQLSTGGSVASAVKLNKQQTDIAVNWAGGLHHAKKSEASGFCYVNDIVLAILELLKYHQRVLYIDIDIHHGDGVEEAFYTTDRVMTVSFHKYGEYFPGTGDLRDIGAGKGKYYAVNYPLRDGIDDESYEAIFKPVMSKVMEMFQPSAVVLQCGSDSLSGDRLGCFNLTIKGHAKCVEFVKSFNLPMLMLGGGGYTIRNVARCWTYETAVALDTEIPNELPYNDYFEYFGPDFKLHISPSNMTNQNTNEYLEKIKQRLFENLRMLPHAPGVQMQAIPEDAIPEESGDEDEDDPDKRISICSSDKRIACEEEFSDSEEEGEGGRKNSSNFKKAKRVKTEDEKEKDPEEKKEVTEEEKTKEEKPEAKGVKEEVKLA

Row | SMILES | pIC50 (HDAC1) | pIC50 (HDAC10) | pIC50 (HDAC2) | pIC50 (HDAC4) | pIC50 (HDAC7) | pIC50 (HDAC8) | selectivity over HDACs 1-10 (HDAC11) | pIC50 (HDAC11) | growth of stem-like cancer cells (sphere formation) [1] | growth of stem-like cancer cells (sphere formation) [2] | expression of Gli1 and Yap1 [3] | expression of Sox2 [3] | expression of Gli1 and Yap1 [4] | expression of Sox2 [4]
1 | O=C(NO)c1cccc(Nc2nc3cc(Cl)c(Cl)cc3o2)c1 [HDTK010, 3-((5,6-dichlorobenzo[d]oxazol-2-yl)amino)-N-hydroxybenzamide] | < 5.00 | < 5.00 | < 5.00 | < 5.00 | 5.00 to 5.30 | 6.00 to 6.30 | > 200 fold | 8.30 to 9.00 | prevented growth | prevented growth | decreased expression | decreased expression | decreased expression | decreased expression
2 | O=C(NO)c1cccc2c1C[C@]1(CCN(Cc3ccc(Cl)c(C(F)(F)F)c3)C1=O)C2 [HDTK054, (S)-1′-(4-chloro-3-(trifluoromethyl)benzyl)-N-hydroxy-2′-oxo-1,3-dihydrospiro[indene-2,3′-pyrrolidine]-4-carboxamide] | < 5.00 | < 5.00 | < 5.00 | < 5.00 | < 5.00 | 5.00 to 5.30 | > 200 fold | 7.30 to 8.00 | prevented growth | prevented growth | decreased expression | decreased expression | decreased expression | decreased expression
